Results from ChEMBL document CHEMBL1136757 (J Med Chem, 2003).
pIC50: −log10 of the molar value. Where “and” joins values, the source holds several entries; their conditions need not be identical. Identical values can stand only once. Blank lines part the entries; values can stand above or below the molecule they belong to.

Legend:
[1] = In vitro inhibitory activity against sorbitol dehydrogenase (SD) from sheep liver; Not active
[2] = molecular target: T1, Glutathione reductase (Saccharomyces cerevisiae S288c, UniProt P41921); test: In vitro inhibitory activity against glutathione reductase (GR) from bakers yeast; Not active
T1 sequence (P41921 whole entry): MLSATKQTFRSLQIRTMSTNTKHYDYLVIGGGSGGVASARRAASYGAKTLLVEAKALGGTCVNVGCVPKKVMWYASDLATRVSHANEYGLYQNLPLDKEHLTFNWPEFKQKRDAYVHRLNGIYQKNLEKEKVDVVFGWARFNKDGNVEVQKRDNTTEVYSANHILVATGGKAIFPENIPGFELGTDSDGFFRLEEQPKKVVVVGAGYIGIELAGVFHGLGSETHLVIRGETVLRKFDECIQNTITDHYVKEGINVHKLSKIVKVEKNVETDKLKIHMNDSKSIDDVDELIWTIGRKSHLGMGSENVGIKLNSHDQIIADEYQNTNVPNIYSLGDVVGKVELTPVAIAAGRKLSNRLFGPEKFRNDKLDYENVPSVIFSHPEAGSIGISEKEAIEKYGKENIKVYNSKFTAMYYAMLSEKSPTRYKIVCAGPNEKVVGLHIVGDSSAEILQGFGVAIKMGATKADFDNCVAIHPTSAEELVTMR

[3] = molecular target: Aldo-keto reductase family 1 member B1 (Rattus norvegicus, UniProt P07943); test: In vitro inhibitory activity against aldose reductase (ALR2) from rat lens extraction.
[4] = molecular target: T2, Aldo-keto reductase family 1 member A1 (Rattus norvegicus, UniProt P51635); test: In vitro inhibitory activity against aldehyde reductase 1 (ALR1) from rat kidney.
T2 sequence (P51635 whole entry): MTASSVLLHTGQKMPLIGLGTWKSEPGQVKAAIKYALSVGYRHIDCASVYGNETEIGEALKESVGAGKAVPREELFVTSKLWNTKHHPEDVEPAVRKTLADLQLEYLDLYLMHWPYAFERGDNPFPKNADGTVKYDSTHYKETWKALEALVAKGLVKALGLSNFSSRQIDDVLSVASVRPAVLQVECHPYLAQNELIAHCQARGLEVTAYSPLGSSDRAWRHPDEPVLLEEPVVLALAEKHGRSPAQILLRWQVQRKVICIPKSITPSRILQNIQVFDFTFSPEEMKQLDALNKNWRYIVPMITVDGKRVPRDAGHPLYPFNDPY

[5] = organism: Rattus norvegicus; test: Ability to prevent cataract development in severly galactosemic rat treated with 3 percent ophthalmic solution on day 13; format: functional
[6] = organism: Rattus norvegicus; test: Ability to prevent cataract development in severly galactosemic rat treated with 3 percent ophthalmic solution on day 17; format: functional
[7] = organism: Rattus norvegicus; test: Ability to prevent cataract development in severly galactosemic rat treated with 3 percent ophthalmic solution on day 12; format: functional
[8] = organism: Rattus norvegicus; test: Ability to prevent cataract development in severly galactosemic rat treated with 3 percent ophthalmic solution on day 14; format: functional
[9] = organism: Rattus norvegicus; test: Ability to prevent cataract development in severly galactosemic rat treated with 3 percent ophthalmic solution on day 20; format: functional
[10] = organism: Rattus norvegicus; test: Ability to prevent cataract development in severly galactosemic rat treated with 3 percent ophthalmic solution on day 15; format: functional
[11] = organism: Rattus norvegicus; test: Ability to prevent cataract development in severly galactosemic rat treated with 3 percent ophthalmic solution on day 11; format: functional
[12] = organism: Rattus norvegicus; test: Ability to prevent cataract development in severly galactosemic rat treated with 3 percent ophthalmic solution on day 18; format: functional
[13] = organism: Rattus norvegicus; test: Ability to prevent cataract development in severly galactosemic rat treated with 3 percent ophthalmic solution on day 21; format: functional
[14] = organism: Rattus norvegicus; test: Ability to prevent cataract development in severly galactosemic rat treated with 3 percent ophthalmic solution on day 16; format: functional
[15] = organism: Rattus norvegicus; test: Ability to prevent cataract development in severly galactosemic rat treated with 3 percent ophthalmic solution on day 19; format: functional
[16] = molecular target: T1, Glutathione reductase; test: In vitro inhibitory activity against glutathione reductase (GR) from bakers yeast
[17] = organism: Rattus norvegicus; test: Ability to prevent cataract development in severly galactosemic rat treated with 1 percent ophthalmic solution on day 11; format: functional
[18] = organism: Rattus norvegicus; test: Ability to prevent cataract development in severly galactosemic rat treated with 1 percent ophthalmic solution on day 13; format: functional
[19] = organism: Rattus norvegicus; test: Ability to prevent cataract development in severly galactosemic rat treated with 1 percent ophthalmic solution on day 16; format: functional
[20] = organism: Rattus norvegicus; test: Ability to prevent cataract development in severly galactosemic rat treated with 1 percent ophthalmic solution on day 17; format: functional
[21] = organism: Rattus norvegicus; test: Ability to prevent cataract development in severly galactosemic rat treated with 1 percent ophthalmic solution on day 21; format: functional
[22] = organism: Rattus norvegicus; test: Ability to prevent cataract development in severly galactosemic rat treated with 1 percent ophthalmic solution on day 18; format: functional
[23] = organism: Rattus norvegicus; test: Ability to prevent cataract development in severly galactosemic rat treated with 1 percent ophthalmic solution on day 19; format: functional
[24] = organism: Rattus norvegicus; test: Ability to prevent cataract development in severly galactosemic rat treated with 1 percent ophthalmic solution on day 20; format: functional
[25] = organism: Rattus norvegicus; test: Ability to prevent cataract development in severly galactosemic rat treated with 1 percent ophthalmic solution on day 12; format: functional
[26] = organism: Rattus norvegicus; test: Ability to prevent cataract development in severly galactosemic rat treated with 1 percent ophthalmic solution on day 15; format: functional
[27] = organism: Rattus norvegicus; test: Ability to prevent cataract development in severly galactosemic rat treated with 1 percent ophthalmic solution on day 14; format: functional

- IC50 [1]: Not Active
- IC50 [2]: Not Active
- pIC50 [3]: 6.19 and 6.34
- pIC50 [4]: 5.45
SMILES: Cc1ccc(CN2C(=O)C(C(C#N)C(=O)O)c3ccccc32)cc1 (centres undefined)

- pIC50 [3]: 6.96
SMILES: COc1ccc(CN2C(=O)C(C(C#N)C(=O)O)c3cc(F)ccc32)cc1 (centres undefined)

- pIC50 [3]: 6.20
SMILES: COc1ccc(CN2C(=O)C(C(C#N)C(=O)O)c3ccccc32)cc1 (centres undefined)

- pIC50 [3]: 6.55
SMILES: CCCN1C(=O)C(C(C#N)C(=O)O)c2cc(F)ccc21 (centres undefined)

- pIC50 [3]: 6.74
SMILES: N#CC(C(=O)O)C1C(=O)N(Cc2ccccc2)c2ccc(F)cc21 (centres undefined)

- pIC50 [3]: 6.60
SMILES: Cc1ccc(CN2C(=O)C(C(C#N)C(=O)O)c3cc(Br)ccc32)cc1 (centres undefined)

- IC50 [2]: Not Active
- pIC50 [3]: 7.12 and 7.38
- pIC50 [4]: 6.16
SMILES: Cc1ccc(CN2C(=O)C(C(C#N)C(=O)O)c3cc(F)ccc32)cc1 (centres undefined)
- Nuclear cataract [5]: 0%
- Nuclear cataract [6]: 57%
- Nuclear cataract [7]: 0%
- Nuclear cataract [8]: 18%
- Nuclear cataract [9]: 96%
- Nuclear cataract [10]: 43%
- Nuclear cataract [11]: 0%
- Nuclear cataract [12]: 72%
- Nuclear cataract [13]: 100%
- Nuclear cataract [14]: 57%
- Nuclear cataract [15]: 84%

- pIC50 [3]: 6.24
SMILES: N#CC(C(=O)O)C1C(=O)N(Cc2ccc(C(F)(F)F)cc2)c2ccccc21 (centres undefined)

- IC50 [1]: Not Active
- IC50 [2]: Not Active
- pIC50 [3]: 6.89 and 7.24
- pIC50 [4]: 6.31
SMILES: N#CC(C(=O)O)C1C(=O)N(Cc2ccc(F)cc2)c2ccc(F)cc21 (centres undefined)

- pIC50 [3]: 6.24
SMILES: N#CC(C(=O)O)C1C(=O)N(Cc2ccc(F)cc2)c2ccccc21 (centres undefined)

- pIC50 [3]: 6.55
SMILES: N#CC(C(=O)O)C1C(=O)N(Cc2ccc(C(F)(F)F)cc2)c2ccc(F)cc21 (centres undefined)

More lines, now with the values behind:

SMILES: N#CC(C(=O)O)C1C(=O)Nc2ccc(F)cc21 (centres undefined)
- IC50 [1]: Not Active
- IC50 [2]: Not Active
- pIC50 [3]: 6.55
- pIC50 [4]: 5.17

SMILES: N#CC(C(=O)O)C1C(=O)Nc2ccc(Br)cc21 (centres undefined)
- pIC50 [3]: 6.42

SMILES: N#CC(C(=O)O)C1C(=O)N(CCCl)c2ccc(F)cc21 (centres undefined)
- pIC50 [3]: 5.87

SMILES: N#CC(C(=O)O)C1C(=O)Nc2ccc([N+](=O)[O-])cc21 (centres undefined)
- pIC50 [3]: 5.92

SMILES: N#CC(C(=O)O)C1C(=O)Nc2ccccc21 (centres undefined)
- pIC50 [3]: 6.07

SMILES: Cc1ccc(CN2C(=O)C(C(C#N)C(=O)OC(C)C)c3cc(F)ccc32)cc1 (centres undefined)
- Nuclear cataract [5]: 0%
- Nuclear cataract [6]: 0%
- Nuclear cataract [7]: 0%
- Nuclear cataract [8]: 0%
- Nuclear cataract [9]: 8%
- Nuclear cataract [10]: 0%
- Nuclear cataract [11]: 0%
- Nuclear cataract [12]: 0%
- Nuclear cataract [13]: 8%
- Nuclear cataract [14]: 0%
- Nuclear cataract [15]: 8%

SMILES: N#CC(C(=O)O)C1C(=O)N(Cc2ccccc2)c2ccccc21 (centres undefined)
- pIC50 [3]: 5.49

SMILES: COc1ccc2c(c1)C(C(C#N)C(=O)O)C(=O)N2 (centres undefined)
- pIC50 [3]: 5.27

SMILES: CN1C(=O)C(C(C#N)C(=O)O)c2cc(F)ccc21 (centres undefined)
- pIC50 [3]: 6.41

SMILES: O=c1c(O)c(-c2ccc(O)c(O)c2)oc2cc(O)cc(O)c12 [QUERCETIN]
- pIC50 [16]: 4.31

SMILES: O=C1NC(=O)[C@@]2(CCOc3ccc(F)cc32)N1 [SORBINIL]
- IC50 [2]: Not Active

SMILES: COc1ccc2c(C(=S)N(C)CC(=O)O)cccc2c1C(F)(F)F [TOLRESTAT]
- Nuclear cataract [17]: 0%
- Nuclear cataract [5]: 0%
- Nuclear cataract [18]: 0%
- Nuclear cataract [19]: 32%
- Nuclear cataract [20]: 32%
- Nuclear cataract [21]: 47%
- Nuclear cataract [6]: 0%
- Nuclear cataract [7]: 0%
- Nuclear cataract [8]: 0%
- Nuclear cataract [22]: 43%
- Nuclear cataract [23]: 43%
- IC50 [2]: Not Active
- Nuclear cataract [24]: 47%
- Nuclear cataract [9]: 0%
- Nuclear cataract [25]: 0%
- Nuclear cataract [10]: 0%
- pIC50 [3]: 7.34
- IC50 [4]: Not Active
- Nuclear cataract [11]: 0%
- Nuclear cataract [12]: 0%
- Nuclear cataract [13]: 0%
- Nuclear cataract [14]: 0%
- Nuclear cataract [26]: 32%
- Nuclear cataract [27]: 23%
- Nuclear cataract [15]: 0%
